Reference: patent US20230085307A1, “PYRIDAZINONE COMPOUND AND HERBICIDE” (NISSAN CHEMICAL CORPORATION, priority 2019, published 2023)

Assays:
[1] = system: barnyard grass; experiment: Test Example 4: herbicidal effect by soil treatment (Table 19, symbol H); assay type: in vivo, barnyard grass (Echinochloa crus-galli); settings: for herbicidal effect rating, H: barnyard grass: 320 g/ha; for H: barnyard grass, herbicidal effect rating: amount of applied herbicide 320 g/ha
Outline: (§1)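 Emulsion of test compound, water-diluted to predetermined amount, sprayed on soil after sowing (seed depth ~1.5 cm, sterilized diluvial soil). Greenhouse, 25–30° C. Effect graded at three weeks post-spray.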

[2] = system: blackgrass; experiment: Test Example 4: herbicidal effect by soil treatment (Table 19, symbol J); assay type: in vivo, blackgrass (Alopecurus myosuroides); settings: for herbicidal effect rating, J: blackgrass: 320 g/ha; for J: blackgrass, herbicidal effect rating: amount of applied herbicide 320 g/ha
Outline: as §1

[3] = system: Japanese bulrush; experiment: Test Example 2: herbicidal activity, application during weed generation under submerged conditions (Table 17, symbol B); assay type: in vivo, Japanese bulrush (Schoenoplectus juncoides); settings: AAH 320 g/ha; application during weed generation, submerged conditions
Outline: (§2)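 Wagner pot, alluvial soil, 4 cm flood; mixed sowing of all species; greenhouse 25° C.–30° C. Emulsifiable formulation, water-diluted to predetermined dose, applied to paddy water at 1–2 leaf stage. Effect rated at 3 wk using the earlier test's scoring criteria.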

[4] = system: persian speedwell; experiment: Test Example 5: herbicidal effect by foliage application, plastic box (Table 20, symbol R); assay type: in vivo, Persian speedwell (Veronica persica); settings: foliage application, 320 g/ha, evaluated three weeks after application
Outline: (§3)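 Post-emergence foliar test in sterilized diluvial soil. Compound applied as water-diluted emulsion at a predetermined rate to 14-day-old plants; evaluation at three weeks.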

[5] = system: green foxtail; experiment: Test Example 4: herbicidal effect by soil treatment (Table 19, symbol G); assay type: in vivo, green foxtail (Setaria viridis); settings: for herbicidal effect rating, G: green foxtail: 320 g/ha; for G: green foxtail, herbicidal effect rating: amount of applied herbicide 320 g/ha
Outline: as §1

[6] = system: redroot pigweed; experiment: Test Example 5: herbicidal effect by foliage application, plastic box (Table 20, symbol N); assay type: in vivo, redroot pigweed (Amaranthus retroflexus); settings: foliage application, 320 g/ha, evaluated three weeks after application
Outline: as §3

[7] = system: oval-leafed pondweed; experiment: Test Example 2: herbicidal activity, application during weed generation under submerged conditions (Table 17, symbol C); assay type: in vivo, oval-leafed pondweed (Monochoria vaginalis); settings: AAH 320 g/ha; application during weed generation, submerged conditions
Outline: as §2

[8] = system: redroot pigweed; experiment: Test Example 4: herbicidal effect by soil treatment (Table 19, symbol N); assay type: in vivo, redroot pigweed (Amaranthus retroflexus); settings: for herbicidal effect rating, N: redroot pigweed: 320 g/ha; for N: redroot pigweed, herbicidal effect rating: amount of applied herbicide 320 g/ha
Outline: as §1

[9] = system: persian speedwell; experiment: Test Example 4: herbicidal effect by soil treatment (Table 19, symbol R); assay type: in vivo, Persian speedwell (Veronica persica); settings: for herbicidal effect rating, R: persian speedwell: 320 g/ha; for R: persian speedwell, herbicidal effect rating: amount of applied herbicide 320 g/ha
Outline: as §1

[10] = system: lambsquarters; experiment: Test Example 5: herbicidal effect by foliage application, plastic box (Table 20, symbol O); assay type: in vivo, lambsquarters (Chenopodium album); settings: foliage application, 320 g/ha, evaluated three weeks after application
Outline: as §3

[11] = system: barnyard grass; experiment: Test Example 3: herbicidal effect by foliage application, Wagner pot (Table 18, symbol H); assay type: in vivo, barnyard grass (Echinochloa crus-galli); settings: for herbicidal effect on H (barnyard grass), rating 0-5: 320 g/ha; for herbicidal effect on H: barnyard grass: amount of applied herbicide 320 g/ha
Outline: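 Plants were sown in alluvial soil held under 0.1–0.5 cm standing water and grown 14 days in a greenhouse at 25–30 °C. An emulsifiable formulation, water-diluted to the set dose, was then sprayed onto the foliage, and effects were scored three weeks later using previously defined criteria.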

[12] = system: windgrass; experiment: Test Example 5: herbicidal effect by foliage application, plastic box (Table 20, symbol L); assay type: in vivo, windgrass (Apera spica-venti); settings: foliage application, 320 g/ha, evaluated three weeks after application
Outline: as §3

[13] = system: velvetleaf; experiment: Test Example 4: herbicidal effect by soil treatment (Table 19, symbol M); assay type: in vivo, velvetleaf (Abutilon theophrasti); settings: for herbicidal effect rating, M: velvetleaf: 320 g/ha; for M: velvetleaf, herbicidal effect rating: amount of applied herbicide 320 g/ha
Outline: as §1

[14] = system: southern crabgrass; experiment: Test Example 5: herbicidal effect by foliage application, plastic box (Table 20, symbol F); assay type: in vivo, southern crabgrass (Digitaria ciliaris); settings: foliage application, 320 g/ha, evaluated three weeks after application
Outline: as §3

[15] = system: chickweed; experiment: Test Example 5: herbicidal effect by foliage application, plastic box (Table 20, symbol P); assay type: in vivo, common chickweed (Stellaria media); settings: foliage application, 320 g/ha, evaluated three weeks after application
Outline: as §3

[16] = system: oval-leafed pondweed; experiment: Test Example 1: herbicidal activity, application before weed generation under submerged conditions (Table 16, symbol C); assay type: in vivo, oval-leafed pondweed (Monochoria vaginalis); settings: 320 g/ha applied herbicide
Outline: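 Emulsion formulation, water-diluted to set dose, was put onto the flooded surface (4 cm depth, alluvial soil) the same day weeds were sown and 2.5-leaf rice transplanted. After 3 weeks at 25-30 °C under glass, each species was rated 0 (≤5% kill) to 5 (≥90% kill).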

Compound	herbicidal effect rating, H: barnyard grass [1]	herbicidal effect rating, J: blackgrass [2]	herbicidal effect rating, B: Japanese bulrush [3]	herbicidal effect on R: persian speedwell [4]	herbicidal effect rating, G: green foxtail [5]	herbicidal effect on N: redroot pigweed [6]	herbicidal effect rating, C: oval-leafed pondweed [7]	herbicidal effect rating, N: redroot pigweed [8]	herbicidal effect rating, R: persian speedwell [9]	herbicidal effect on O: lambsquarters [10]	herbicidal effect on H (barnyard grass), rating 0-5 [11]	herbicidal effect on L: windgrass [12]	herbicidal effect rating, M: velvetleaf [13]	herbicidal effect on F: southern crabgrass [14]	herbicidal effect on P: chickweed [15]	Herbicidal effect on C: oval-leafed pondweed (grade 0-5) [16]	H: barnyard grass, herbicidal effect rating [1]	J: blackgrass, herbicidal effect rating [2]	G: green foxtail, herbicidal effect rating [5]	N: redroot pigweed, herbicidal effect rating [8]	other results
CCOc1cc(F)ccc1-c1sc2ccc(F)cc2c1-c1c(O)c(C)nn(C)c1=O [2-084]	4 (Herbicidal rate of 70% or more and less than 90%)	2 (Herbicidal rate of 20% or more and less than 40%)	1 (Herbicidal rate of 5% or more and less than 20%)	5 (Herbicidal rate of 90% or more (almost completely withered))	4 (Herbicidal rate of 70% or more and less than 90%)	5 (Herbicidal rate of 90% or more (almost completely withered))	3 (Herbicidal rate of 40% or more and less than 70%)	5 (Herbicidal rate of 90% or more (almost completely withered))	5 (Herbicidal rate of 90% or more (almost completely withered))	3 (Herbicidal rate of 40% or more and less than 70%)	5 (Herbicidal rate of 90% or more (almost completely withered))	4 (Herbicidal rate of 70% or more and less than 90%)	3 (Herbicidal rate of 40% or more and less than 70%)	4 (Herbicidal rate of 70% or more and less than 90%)	5 (Herbicidal rate of 90% or more (almost completely withered))	2 (Herbicidal rate of 20% or more and less than 40%)					
CCCC(=O)Oc1c(C)nn(C)c(=O)c1-c1c(-c2ccc(F)cc2OCC)sc2ccc(F)cc12 [2-085]	3 (Herbicidal rate of 40% or more and less than 70%)	0 (Herbicidal rate of 5% or less (almost no effect))	3 (Herbicidal rate of 40% or more and less than 70%)	4 (Herbicidal rate of 70% or more and less than 90%)	3 (Herbicidal rate of 40% or more and less than 70%)	4 (Herbicidal rate of 70% or more and less than 90%)	3 (Herbicidal rate of 40% or more and less than 70%)	5 (Herbicidal rate of 90% or more (almost completely withered))	3 (Herbicidal rate of 40% or more and less than 70%)	3 (Herbicidal rate of 40% or more and less than 70%)	5 (Herbicidal rate of 90% or more (almost completely withered))	1 (Herbicidal rate of 5% or more and less than 20%)	0 (Herbicidal rate of 5% or less (almost no effect))	5 (Herbicidal rate of 90% or more (almost completely withered))	5 (Herbicidal rate of 90% or more (almost completely withered))	1 (Herbicidal rate of 5% or more and less than 20%)					
Cc1nn(C)c(=O)c(-c2c(-c3ccc4c(c3)OCCO4)sc3ccc(F)cc23)c1O [2-092]	3 (Herbicidal rate of 40% or more and less than 70%)	0 (Herbicidal rate of 5% or less (almost no effect))	3 (Herbicidal rate of 40% or more and less than 70%)	5 (Herbicidal rate of 90% or more (almost completely withered))	2 (Herbicidal rate of 20% or more and less than 40%)	5 (Herbicidal rate of 90% or more (almost completely withered))	4 (Herbicidal rate of 70% or more and less than 90%)	4 (Herbicidal rate of 70% or more and less than 90%)	5 (Herbicidal rate of 90% or more (almost completely withered))	5 (Herbicidal rate of 90% or more (almost completely withered))	5 (Herbicidal rate of 90% or more (almost completely withered))	4 (Herbicidal rate of 70% or more and less than 90%)	5 (Herbicidal rate of 90% or more (almost completely withered))	4 (Herbicidal rate of 70% or more and less than 90%)	5 (Herbicidal rate of 90% or more (almost completely withered))	2 (Herbicidal rate of 20% or more and less than 40%)					
Cc1nn(C)c(=O)c(-c2c(-c3ccc(C(F)(F)F)cc3)sc3ccc(Cl)cc23)c1O [2-111]			1 (Herbicidal rate of 5% or more and less than 20%)	5 (Herbicidal rate of 90% or more (almost completely withered))		5 (Herbicidal rate of 90% or more (almost completely withered))	0 (Herbicidal rate of 5% or less (almost no effect))			3 (Herbicidal rate of 40% or more and less than 70%)		5 (Herbicidal rate of 90% or more (almost completely withered))		0 (Herbicidal rate of 5% or less (almost no effect))	5 (Herbicidal rate of 90% or more (almost completely withered))	0 (Herbicidal rate of 5% or less (almost no effect))	0 (Herbicidal rate of 5% or less (almost no effect))	5 (Herbicidal rate of 90% or more (almost completely withered))	0 (Herbicidal rate of 5% or less (almost no effect))	5 (Herbicidal rate of 90% or more (almost completely withered))	R: persian speedwell, herbicidal effect rating [9]: 5 (Herbicidal rate of 90% or more (almost completely withered)); herbicidal effect on H: barnyard grass [11]: 4 (Herbicidal rate of 70% or more and less than 90%); M: velvetleaf, herbicidal effect rating [13]: 0 (Herbicidal rate of 5% or less (almost no effect))
CCCC(=O)Oc1c(C)nn(C)c(=O)c1-c1c(-c2ccccc2OC)sc2ccc(C)cc12 [2-139]			3 (Herbicidal rate of 40% or more and less than 70%)	4 (Herbicidal rate of 70% or more and less than 90%)		4 (Herbicidal rate of 70% or more and less than 90%)	0 (Herbicidal rate of 5% or less (almost no effect))			3 (Herbicidal rate of 40% or more and less than 70%)		0 (Herbicidal rate of 5% or less (almost no effect))		3 (Herbicidal rate of 40% or more and less than 70%)	5 (Herbicidal rate of 90% or more (almost completely withered))	1 (Herbicidal rate of 5% or more and less than 20%)	0 (Herbicidal rate of 5% or less (almost no effect))	1 (Herbicidal rate of 5% or more and less than 20%)	0 (Herbicidal rate of 5% or less (almost no effect))	0 (Herbicidal rate of 5% or less (almost no effect))	R: persian speedwell, herbicidal effect rating [9]: 4 (Herbicidal rate of 70% or more and less than 90%); herbicidal effect on H: barnyard grass [11]: 4 (Herbicidal rate of 70% or more and less than 90%); M: velvetleaf, herbicidal effect rating [13]: 0 (Herbicidal rate of 5% or less (almost no effect))
